{"source": "patent US12036312B2", "about": "“Non-aqueous topical compositions comprising a halogenated salicylanilide” (priority 2016, dated 2024)", "key": {"[1]": {"test_system": "P. acnes", "test": "MIC by agar dilution, Propionibacterium acnes", "assay_type": "cell-based", "conditions": "Cutibacterium acnes", "experimental": "The strains of P. acnes used were CSS3288, CSS 3023, 998, and 1044 obtained from Luc Dubreuil. P. acnes strains are grown on Brucella blood agar with hemin and vitamin K [1], plates are incubated 48 to 72 hours at 35-37° C. under anaerobic conditions. Brucella blood agar with hemin and vitamin K was prepared as follows: sterile Brucella agar with hemin and vitamin K was tempered to 50-54° C. and the medium was supplemented with 5% lacked horse blood and poured in Petri dishes. Broth cultures are performed in Wilkins-Chalgren broth. All cultures are done under anaerobic conditions in an anaerobic chamber. Agar media was inoculated for single-colony isolation using sterile disposable loops. The MICs of the antibacterial agents was determined by agar dilution. […] Brucella Blood Agar with hemin and vitamin K plates containing series of two-fold dilutions of antibacterial agents were prepared. The base agar was prepared and tempered to 50-54° C. Then the blood supplement and the antibiotics were added and the 7 ml were aseptically poured into six-well culture plates. Once the agar had solidified it was transferred into the anaerobe chamber for 24 hours before use to allow for pre-reduction. Twenty-five microliters of P. acnes culture containing 10^6 CFU of were spotted in each well. The plates were incubated anaerobically for 72 hours at 35-37° C. The MIC is the lowest concentration that inhibits growth of P. acnes."}, "[2]": {"test_system": "P. acnes", "assay_type": "cell-based, Propionibacterium acnes", "conditions": "for Frequency of mutation/ml: MIC × 4"}, "[3]": {"conditions": "P. acnes, agar dilution, anaerobic, 72 hours, read-out: MIC"}}, "note": "Read-outs that look alike come from different tables or passages of the source.", "data": [{"molecule": "C=C[C@]1(C)C[C@@H](OC(=O)CS[C@@H]2C[C@H]3CC[C@@H](C2)N3C)[C@]2(C)[C@H](C)CC[C@]3(CCC(=O)[C@H]32)[C@@H](C)[C@@H]1O", "note": "[Retapamulin, retapamulin]", "values": [{"measurement": "MIC", "setting": "[1]; 72 h", "result": 0.016, "unit": "µg/mL"}, {"measurement": "frequency of mutation of resistance", "setting": "[2]; P. acnes", "result": "~1×10^−8"}, {"measurement": "Frequency of mutation/ml", "setting": "[2]; P. acnes strain 998", "result": "2.17e-08", "unit": "mL⁻¹"}, {"measurement": "Frequency of mutation/ml", "setting": "[2]; P. acnes strain 1044", "result": "1.09e-08", "unit": "mL⁻¹"}, {"measurement": "Frequency of mutation/ml", "setting": "[2]; P. acnes strain CSS3023", "result": "1.46e-08", "unit": "mL⁻¹"}, {"measurement": "Frequency of mutation/ml", "setting": "[2]; P. acnes strain CSS3288", "result": "1.25e-08", "unit": "mL⁻¹"}]}, {"molecule": "O=C(Nc1ccc([N+](=O)[O-])cc1Cl)c1cc(Cl)ccc1O", "note": "[Niclosamide, niclosamide]", "values": [{"measurement": "MIC", "setting": "[1]; [3]", "result": 0.5, "unit": "µg/mL"}, {"measurement": "frequency of mutation of resistance", "setting": "[2]; P. acnes", "result": "less than 1×10^−9"}, {"measurement": "frequency of mutation, times lower than the two comparator compounds fusidic acid and retapamulin", "setting": "[2]; P. acnes", "result": "at least 10 times"}, {"measurement": "Frequency of mutation/ml", "setting": "[2]; P. acnes strain 998", "result": "<2.5e-09", "unit": "mL⁻¹"}, {"measurement": "Frequency of mutation/ml", "setting": "[2]; P. acnes strain 1044", "result": "<1.92e-08", "unit": "mL⁻¹"}, {"measurement": "Frequency of mutation/ml", "setting": "[2]; P. acnes strain CSS3023", "result": "<4.55e-09", "unit": "mL⁻¹"}, {"measurement": "Frequency of mutation/ml", "setting": "[2]; P. acnes strain CSS3288", "result": "<2.7e-09", "unit": "mL⁻¹"}]}, {"molecule": "CC(=O)O[C@H]1C[C@@]2(C)[C@@H](C[C@@H](O)[C@H]3[C@@]4(C)CC[C@@H](O)[C@@H](C)[C@@H]4CC[C@@]32C)/C1=C(\\CCC=C(C)C)C(=O)O", "note": "[Fusidic acid, fusidic acid]", "values": [{"measurement": "MIC", "setting": "[1]; [3]", "result": 4, "unit": "µg/mL"}, {"measurement": "frequency of mutation of resistance", "setting": "[2]; P. acnes", "result": "~1×10^−8"}, {"measurement": "Frequency of mutation/ml", "setting": "[2]; P. acnes strain 998", "result": "9.17e-08", "unit": "mL⁻¹"}, {"measurement": "Frequency of mutation/ml", "setting": "[2]; P. acnes strain 1044", "result": "7.21e-08", "unit": "mL⁻¹"}, {"measurement": "Frequency of mutation/ml", "setting": "[2]; P. acnes strain CSS3023", "result": "1.82e-08", "unit": "mL⁻¹"}, {"measurement": "Frequency of mutation/ml", "setting": "[2]; P. acnes strain CSS3288", "result": "6.15e-08", "unit": "mL⁻¹"}]}]}
